Where two headings read alike, the source gives them in different places. Where only a bound is given, the exact number is not on record here.

Assay [1] deals with phospho-ERK in MIA PaCa2 or H358 cells. The experiment in a line: Phospho-ERK assay (AlphaLisa). The conditions noted are these: MIA PaCa2 or H358 cells, compound incubated 1.5 hours, read-out: IC50 (p-ERK). It is filed as cell-based. (In general: Bead proximity is the source of the signal in Alpha formats.)
The target in the next assay is T1, SHP2 (full length) (Homo sapiens, UniProt Q06124).
T1 construct: SHP2 (full length, diluted to 100 pM final concentration in reaction buffer, BPS bioscience, US); purchased BPS bioscience, US
T1 sequence (Q06124 1-593): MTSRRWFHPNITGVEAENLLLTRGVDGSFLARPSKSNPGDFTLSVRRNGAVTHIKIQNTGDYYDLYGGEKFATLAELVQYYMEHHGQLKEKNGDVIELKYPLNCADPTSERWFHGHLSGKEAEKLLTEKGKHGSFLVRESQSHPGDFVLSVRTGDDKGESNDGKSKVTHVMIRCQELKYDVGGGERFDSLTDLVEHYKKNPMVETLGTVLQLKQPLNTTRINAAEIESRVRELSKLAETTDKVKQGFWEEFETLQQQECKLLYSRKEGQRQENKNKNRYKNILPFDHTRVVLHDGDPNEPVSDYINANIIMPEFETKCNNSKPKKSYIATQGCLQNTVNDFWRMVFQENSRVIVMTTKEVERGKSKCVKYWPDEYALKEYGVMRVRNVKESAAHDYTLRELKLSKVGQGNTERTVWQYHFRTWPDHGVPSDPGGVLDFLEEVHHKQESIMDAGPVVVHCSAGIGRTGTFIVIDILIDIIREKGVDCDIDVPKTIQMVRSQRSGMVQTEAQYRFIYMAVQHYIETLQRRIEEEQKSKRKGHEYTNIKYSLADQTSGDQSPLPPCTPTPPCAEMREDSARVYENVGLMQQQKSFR
The experiment in a line: Phosphatase assay (PTPase assay) with DiFMUP substrate. The class given is biochemical. The conditions noted are these: SHP2 activated with SHP2 activating peptide; DiFMUP 80 μM, 2 hours; fluorescence; read-out: IC50 (PTPase aS say).

Turning to `COc1cccc(Cn2cnc3ccc(Sc4cnc(N5CCC6(CC5)CO[C@@H](C)[C@H]6N)cn4)c(Cl)c3c2=O)c1F` [Example 70, 6-((5-((3S,4S)-4-amino-3-methyl-2-oxa-8-azaspiro[4.5]decan-8-yl)pyrazin-2-yl)thio)-5-chloro-3-(2-fluoro-3-methoxybenzyl)quinazolin-4(3H)-one], the IC50 (usually the point on the concentration scale where inhibition reaches its midpoint) in assay [1] (1.5 h) was under 45 nM; at SHP2 (full length), under 3 nM.

As to `Cn1c(N2CCN(CC(N)c3ccccc3)CC2)nc(N)c(Sc2cccc(Cl)c2Cl)c1=O` (centres unmarked) [Example 190, 6-amino-2-(4-(2-amino-2-phenylethyl)piperazin-1-yl)-5-((2,3-dichlorophenyl)thio)-3-methylpyrimidin-4(3H)-one], the IC50 in assay [1] (1.5 h) is over 1500 nM; at SHP2 (full length), over 100 nM.

Take `COCCn1cnc2ccc(Sc3cnc(N4CCC5(CC4)Cc4nc(Cl)sc4[C@@H]5N)cn3)c(Cl)c2c1=O` [Example 157, 6-[5-[(6R)-6-amino-2-chloro-spiro[4,6-dihydrocyclopenta[d]thiazole-5,4′-piperidin]-1′-yl]pyrazin-2-yl]sulfanyl-5-chloro-3-(2-methoxyethyl)quinazolin-4-one]: the half-maximal inhibitory concentration (IC50) in assay [1] (1.5 h) was in the range of 45 to 1500 nM; on SHP2 (full length) it was 3 to 100 nM.

In the case of `CC(=O)NCCn1cnc2ccc(Sc3cnc(N4CCC5(CC4)CO[C@@H](C)[C@H]5N)cn3)c(Cl)c2c1=O` [Example 115], the half-maximal inhibitory concentration (IC50) in assay [1] (1.5 h) is under 45 nM; on SHP2 (full length), under 3 nM.

With `C[C@@H]1OCC2(CCN(c3cnc(Sc4ccc5nn(C)cc5c4Cl)cn3)CC2)[C@@H]1N` [Example 26, (3S,4S)-8-(5-((4-chloro-2-methyl-2H-indazol-5-yl)thio)pyrazin-2-yl)-3-methyl-2-oxa-8-azaspiro[4.5]decan-4-amine], the IC50 in assay [1] (1.5 h) was under 45 nM; on SHP2 (full length), under 3 nM.

Regarding `NC(=O)c1nc(Sc2ccc3ncn(CC4CCOCC4)c(=O)c3c2Cl)cnc1N1CCC2(CC1)Cc1ncsc1[C@H]2N` [Example 174, (S)-3-(6-amino-4,6-dihydrospiro[cyclopenta[d]thiazole-5,4′-piperidin]-1′-yl)-6-((5-chloro-4-oxo-3-((tetrahydro-2H-pyran-4-yl)methyl)-3,4-dihydroquinazolin-6-yl)thio)pyrazine-2-carboxamide], the 50% inhibitory concentration (IC50) in assay [1] (1.5 h) is under 45 nM; at SHP2 (full length), under 3 nM.

In the case of `N[C@@H]1c2cccnc2CC12CCN(c1cnc(Sc3ccc4ncn(Cc5ccoc5)c(=O)c4c3Cl)cn1)CC2` [Example 138], the values for the half-maximal inhibitory concentration (IC50) (in assay [1] (1.5 h); on SHP2 (full length)) were under 45 nM and under 3 nM, respectively.

As for `C[C@@H]1OCC2(CCN(c3cnc(Sc4ccc5ncn(CCN6CCCC6)c(=O)c5c4Cl)cn3)CC2)[C@@H]1N` [Example 89], the IC50 was 45 to 1500 nM in assay [1] (1.5 h) and 3 to 100 nM on SHP2 (full length).

Regarding `CNS(=O)(=O)c1cccc(Sc2cnc(N3CCC(C)(N)CC3)cn2)c1Cl` [Example 8, 3-((5-(4-amino-4-methylpiperidin-1-yl)pyrazin-2-yl)thio)-2-chloro-N-methylbenzenesulfonamide], the values for the IC50 (in assay [1] (1.5 h); at SHP2 (full length)) were over 1500 nM and 3 to 100 nM, respectively.

Regarding `C[C@@H]1OCC2(CCN(c3cnc(Sc4ccc5nn(Cc6ccccc6)cc5c4Cl)cn3)CC2)[C@@H]1N` [Example 49, (3S,4S)-8-(5-((2-benzyl-4-chloro-2H-indazol-5-yl)thio)pyrazin-2-yl)-3-methyl-2-oxa-8-azaspiro[4.5]decan-4-amine], the IC50 in assay [1] (1.5 h) was over 1500 nM; on SHP2 (full length), 3 to 100 nM.

Turning to `N[C@@H]1c2cccnc2CC12CCN(c1cnc(Sc3ccc4ncn(Cc5cccnc5)c(=O)c4c3Cl)cn1)CC2` [Example 105, (S)-6-((5-(5-amino-5,7-dihydrospiro[yclopenta[b]pyridine-6,4′-piperidin]-1′-yl)pyrazin-2-yl)thio)-5-chloro-(3-pyridin-3-ylmethyl)quinazolin-4(3H)-one], the figures for the IC50 (in assay [1] (1.5 h); at SHP2 (full length)) were under 45 nM and under 3 nM, respectively.

Regarding `C[C@@H]1OCC2(CCN(c3cnc(Sc4ccc5ncn(CC6CCOCC6)c(=O)c5c4Cl)cn3)CC2)[C@@H]1N` [Example 65, 6-((5-((3S,4S)-4-amino-3-methyl-2-oxa-8-azaspiro[4.5]decan-8-yl)pyrazin-2-yl)thio)-5-chloro-3-((tetrahydro-2H-pyran-4-yl)methyl)quinazolin-4(3H)-one], the IC50 was under 45 nM in assay [1] (1.5 h) and under 3 nM on SHP2 (full length).

Take `N[C@@H]1c2cccnc2CC12CCN(c1cnc(Sc3ccc4ncn(CCCO)c(=O)c4c3Cl)cn1)CC2` [Example 109]: the IC50 in assay [1] (1.5 h) was under 45 nM; on SHP2 (full length) it was under 3 nM.

Take `COCCn1cnc2ccc(Sc3cnc(N4CCC5(CC4)Cc4ncsc4C5N)cn3)c(Cl)c2c1=O` (stereo in doubt) [Example 145, 6-[5-[(6R)-6-aminospiro[4,6-dihydrocyclopenta[d]thiazole-5,4′-piperidin]-1′-yl]pyrazin-2-yl]sulfanyl-5-chloro-3-(2-methoxyethyl)quinazolin-4-one]: the values for the IC50 (in assay [1]; on SHP2 (full length)) were 45 to 1500 nM and 3 to 100 nM, respectively.

Consider `Cn1c(N2CCN(C[C@H](N)Cc3ccncc3)CC2)nc(N)c(Sc2cccc(Cl)c2Cl)c1=O` [Example 186, (R)-6-amino-2-(4-(2-amino-3-(pyridin-4-yl)propyl)piperazin-1-yl)-5-((2,3-dichlorophenyl)thio)-3-methylpyrimidin-4(3H)-one], for which the IC50 in assay [1] (1.5 h) was 45 to 1500 nM; at SHP2 (full length), over 100 nM.

With `COCCn1cnc2ccc(Sc3nc(C(C)=O)c(N4CCC5(CC4)CO[C@@H](C)[C@H]5N)nc3N)c(Cl)c2c1=O` [Example 155], the results for the IC50 (in assay [1] (1.5 h); on SHP2 (full length)) were over 1500 nM and 3 to 100 nM, respectively.

For the compound `C[C@@H]1OCC2(CCN(c3cnc(Sc4cccc(S(N)(=O)=O)c4Cl)cn3)CC2)[C@@H]1N` [Example 9, 3-((5-((3S,4S)-4-amino-3-methyl-2-oxa-8-azaspiro[4.5]decan-8-yl)pyrazin-2-yl)thio)-2-chlorobenzenesulfonamide], the concentration for half-maximal inhibition (IC50) in assay [1] (1.5 h) was under 45 nM; on SHP2 (full length), under 3 nM.

Take `C[C@@H]1OCC2(CCN(c3cnc(Sc4ccc5ncn(Cc6nc7ccccc7o6)c(=O)c5c4Cl)cn3)CC2)[C@@H]1N` [Example 47, 6-((5-((3S,4S)-4-amino-3-methyl-2-oxa-8-azaspiro[4.5]decan-8-yl)pyrazin-2-yl)thio)-3-(benzooxazol-2-ylmethyl)-5-chloroquinazolin-4(3H)-one]: the IC50 was under 45 nM in assay [1] (1.5 h) and under 3 nM at SHP2 (full length).

As to `Cn1cc2c(Cl)c(Sc3cnc(N4CCC(C)(N)CC4)cn3)ccc2n1` [Example 25, 1-(5-((4-chloro-2-methyl-2H-indazol-5-yl)thio)pyrazin-2-yl)-4-methylpiperidin-4-amine], the IC50 in assay [1] (1.5 h) was in the range of 45 to 1500 nM; on SHP2 (full length), 3 to 100 nM.

As for `C[C@@H]1OCC2(CCN(c3cnc(Sc4ccc5nc(Cc6cnccn6)[nH]c5c4Cl)cn3)CC2)[C@@H]1N` [Example 136, (3S,4S)-8-(5-((7-chloro-2-(pyrazin-2-ylmethyl)-1H-benzo[d]imidazol-6-yl)thio)pyrazin-2-yl)-3-methyl-2-oxa-8-azaspiro[4.5]decan-4-amine], the IC50 is under 45 nM in assay [1] (1.5 h) and under 3 nM at SHP2 (full length).

In the case of `C[C@@H]1OCC2(CCN(c3cnc(Sc4ccc5ncn(Cc6cccc(O)c6)c(=O)c5c4Cl)cn3)CC2)[C@@H]1N` [Example 66, 6-((5-((3S,4S)-4-amino-3-methyl-2-oxa-8-azaspiro[4.5]decan-8-yl)pyrazin-2-yl)thio)-5-chloro-3-(3-hydroxybenzyl)quinazolin-4(3H)-one], the 50% inhibitory concentration (IC50) in assay [1] (1.5 h) is under 45 nM; on SHP2 (full length), under 3 nM.

Turning to `CC(C)(O)Cn1cnc2ccc(Sc3ncc(N4CCC5(CC4)Cc4ncsc4[C@H]5N)nc3N)c(Cl)c2c1=O` [Example 166, (S)-6-((3-amino-5-(6-amino-4,6-dihydrospiro[cyclopenta[d]thiazole-5,4′-piperidin]-1′-yl)pyrazin-2-yl)thio)-5-chloro-3-(2-hydroxy-2-methylpropyl)quinazolin-4(3H)-one], the IC50 in assay [1] (1.5 h) is under 45 nM; on SHP2 (full length), under 3 nM.

For the compound `C[C@@H]1OCC2(CCN(c3cnc(Sc4ccc5ncn(Cc6ccn(C)n6)c(=O)c5c4Cl)cn3)CC2)[C@@H]1N` [Example 53, 6-((5-((3S,4S)-4-amino-3-methyl-2-oxa-8-azaspiro[4.5]decan-8-yl)pyrazin-2-yl)thio)-5-chloro-3-((1-methyl-1H-pyrazol-3-yl)methyl)quinazolin-4(3H)-one], the concentration for half-maximal inhibition (IC50) in assay [1] (1.5 h) is under 45 nM; at SHP2 (full length) it was 3 to 100 nM.

`CC(O)CCn1cnc2ccc(Sc3cnc(N4CCC5(CC4)Cc4ncccc4[C@H]5N)cn3)c(Cl)c2c1=O` (stereo partly drawn) [Example 111, (6-((5-((S)-5-amino-5,7-dihydrospiro[yclopenta[b]pyridine]-6,4′-piperidin]-1′-yl)pyrazin-2-yl]thio)-5-chloro-3-(3-hydroxybutyl)quinazolin-4(3H)-one]: the IC50 is under 45 nM in assay [1] (1.5 h) and under 3 nM on SHP2 (full length).

As to `C[C@@H]1OCC2(CCN(c3cnc(Sc4ccc5ncn(CC6CNC(=O)O6)c(=O)c5c4Cl)cn3)CC2)[C@@H]1N` (some centres unmarked) [Example 118], the half-maximal inhibitory concentration (IC50) in assay [1] (1.5 h) is under 45 nM; on SHP2 (full length) it was under 3 nM.
